Data published in article PMC3335202 (Journal of Medicinal Chemistry, 2012).
Like-named read-outs stand apart in the source and are kept apart here.

Assays:
[1] = tested on: Human embryonic stem cell H9 lines carrying MYH6-mCherry reporters; test: hESC cardiogenesis assay; assay type: cell-based; settings: for induction of cardiogenesis (class in words): dose-response behaviour
[2] = tested on: Human embryonic stem cell H9 lines carrying MYH6-mCherry reporters; settings: cited from earlier work
[3] = tested on: β-catenin-dependent canonical Wnt pathway; test: Wnt inhibition assay; assay type: cell-based, human; settings: for IC50: Wnt inhibition; for fold less potent in Wnt inhibition: compared with the well-tolerated parent (9/1)
[4] = Homo sapiens, HEK-293T, HEK293T cells

Compound | induction of cardiogenesis (class in words) ([1]; hESCs) | further results
O=C(Nc1cccc2cccnc12)c1ccc(N2C(=O)[C@@H]3[C@H](C2=O)[C@@H]2C=C[C@H]3C2)cc1 [Compound 1, reference compound] | dose-dependent induction of cardiogenesis functional activity | cell toxicity (HEK293T cells; human): not toxic to HEK293T cells
Oc1nc(-c2ccc(C(F)(F)F)cc2)nc2c1CSCC2 [Compound 2] | – | fold less potent than 1 and 3 (cardiogenesis) ([2]; hESCs): about 1.5 fold; maximum efficacious concentration for cardiogenesis ([2]; hESCs): 2 µM; cell toxicity (HEK293T cells): did not induce cell toxicity
Cc1ccc2nc(NC(=O)CSc3nc4c(c(=O)n3-c3ccc(F)cc3)SCC4)sc2c1 [Compound 3] | – | maximum efficacious concentration for cardiogenesis ([2]; hESCs): 2.5 µM
COc1ccc(/C=C2/SC(=S)N(CCCC(=O)O)C2=O)cc1OC [Compound 4] | – | cardiogenic activity (in words) ([2]; at 50 μM): weakly cardiogenic
O=C(Nc1cccc2cccnc12)c1ccc(N2C(=O)[C@@H]3[C@@H]4CC[C@@H](C4)[C@@H]3C2=O)cc1 [Compound 9, 4-(cis-endo-1,3-Dioxooctahydro-2H-4,7-methanoisoindol-2-yl)-N-(quinolin-8-yl)benzamide] | dose-dependent induction of cardiogenesis functional activity | –
O=C1[C@@H]2[C@@H]3CC[C@@H](C3)[C@@H]2C(=O)N1[C@H]1CC[C@H](C(=O)Nc2cccc3cccnc23)CC1 [Compound 10, 4-(cis-endo-1,3-Dioxooctahydro-2H-4,7-methanoisoindol-2-yl)-N-(quinolin-8-yl)-trans-cyclohexyl carboxamide] | potent stimulators of cardiogenesis | Emax ([1]; Homo sapiens, Embryonic stem cell, read-out: % cardiogenesis): 145%
O=C1[C@@H]2[C@@H]3CC[C@@H](C3)[C@@H]2C(=O)N1[C@H]1CC[C@@H](C(=O)Nc2cccc3cccnc23)CC1 [Compound 11, 4-(cis-endo-1,3-Dioxooctahydro-2H-4,7-methanoisoindol-2-yl)-N-(quinolin-8-yl)-cis-cyclohexyl carboxamide] | dose-dependent induction of cardiogenesis functional activity | –
O=C(Nc1cccc2ccccc12)c1ccc(N2C(=O)[C@@H]3[C@@H]4CC[C@@H](C4)[C@@H]3C2=O)cc1 [Compound 12, 4-(cis-endo-1,3-Dioxooctahydro-2H-4,7-methanoisoindol-2-yl)-N-(naphtalen-1-yl) benzamide] | functionally inactive as inducers of cardiogenesis | –
O=C1[C@@H]2[C@@H]3CC[C@@H](C3)[C@@H]2C(=O)N1[C@H]1CC[C@H](C(=O)Nc2nccc3ccccc23)CC1 [Compound 13, 4-(cis-endo-1,3-Dioxooctahydro-2H-4,7-methanoisoindol-2-yl)-N-(isoquinolin-1-yl)-trans-cyclohexylcarboxamide] | dose-dependent induction of cardiogenesis functional activity | –
O=C1[C@@H]2[C@@H]3CC[C@@H](C3)[C@@H]2C(=O)N1[C@H]1CC[C@H](C(=O)Nc2cncc3ccccc23)CC1 [Compound 14, 4-(cis-endo-1,3-Dioxooctahydro-2H-4,7-methanoisoindol-2-yl)-N-(isoquinolin-4-yl)-trans-cyclohexylcarboxamide] | dose-dependent induction of cardiogenesis functional activity | –
O=C1[C@@H]2[C@@H]3CC[C@@H](C3)[C@@H]2C(=O)N1[C@H]1CC[C@H](C(=O)Nc2cccc3ccncc23)CC1 [Compound 18, 4-(cis-endo-1,3-Dioxooctahydro-2H-4,7-methanoisoindol-2-yl)-N-(isoquinolin-8-yl)-trans-cyclohexylcarboxamide] | dose-dependent induction of cardiogenesis functional activity | Z score at 625 nM ([1]; cardiogenesis, relative to DMSO control, 625 nM): negative
COC(=O)c1ccccc1NC(=O)[C@H]1CC[C@H](N2C(=O)[C@@H]3[C@@H]4CC[C@@H](C4)[C@@H]3C2=O)CC1 [Compound 27] | dose-dependent induction of cardiogenesis functional activity | –
O=C1CCCc2cccc(NC(=O)[C@H]3CC[C@H](N4C(=O)[C@@H]5[C@@H]6CC[C@@H](C6)[C@@H]5C4=O)CC3)c21 [Compound 29, 4-(cis-endo-(1,3-Dioxooctahydro-2H-4,7-methanoisoindol-2-yl))-N-(8-oxo-5,6,7,8-tetrahydronaphthalen-1-yl)-trans-cyclohexylcarboxamide] | potent stimulators of cardiogenesis | concentration giving maximum percent cardiogenesis ([1]; hESCs): 150 nM; fold greater cardiogenic potency (lower concentration) compared to 1 ([1]; ratio of concentrations for maximum cardiogenesis): 30 fold
O=C1c2ccccc2-c2cccc(NC(=O)[C@H]3CC[C@H](N4C(=O)[C@@H]5[C@@H]6CC[C@@H](C6)[C@@H]5C4=O)CC3)c21 [Compound 30, 4-(cis-endo-(1,3-Dioxooctahydro-2H-4,7-methanoisoindol-2-yl))-N-(9H-fluoren-9-on-1-yl)-trans-cyclohexylcarboxamide] | dose-dependent induction of cardiogenesis functional activity | –
O=C1[C@@H]2[C@@H]3CC[C@@H](C3)[C@@H]2C(=O)N1[C@H]1CC[C@H](C(=O)Nc2ccccn2)CC1 [Compound 31, 4-(cis-endo-(1,3-Dioxooctahydro-2H-4,7-methanoisoindol-2-yl))-N-(pyridin-2-yl)-trans-cyclohexyl carboxamide] | functionally inactive as inducers of cardiogenesis | IC50 [3, 4]: ~100 nM
O=C1[C@@H]2[C@@H]3CC[C@@H](C3)[C@@H]2C(=O)N1[C@H]1CC[C@H](C(=O)Nc2ccncc2)CC1 [Compound 33, 4-(cis-endo-(1,3-Dioxooctahydro-2H-4,7-methanoisoindol-2-yl))-N-(pyridin-4-yl)-trans-cyclohexyl carboxamide] | functionally inactive as inducers of cardiogenesis | IC50 [3, 4]: ~100 nM
CC(=O)c1ncccc1NC(=O)[C@H]1CC[C@H](N2C(=O)[C@@H]3[C@@H]4CC[C@@H](C4)[C@@H]3C2=O)CC1 [Compound 34, 4-(cis-endo-(1,3-Dioxooctahydro-2H-4,7-methanoisoindol-2-yl))-N-(2-acetyl-pyridin-3-yl)-trans-cyclohexylcarboxamide] | potent stimulators of cardiogenesis | –
CC(=O)c1ccc(NC(=O)[C@H]2CC[C@H](N3C(=O)[C@@H]4[C@@H]5CC[C@@H](C5)[C@@H]4C3=O)CC2)cn1 [Compound 35, 4-(cis-endo-(1,3-Dioxooctahydro-2H-4,7-methanoisoindol-2-yl))-N-(6-acetyl-pyridin-3-yl)-trans-cyclohexylcarboxamide] | functionally inactive as inducers of cardiogenesis | –
O=C(Nc1cccc2cccnc12)c1ccc(N2C(=O)[C@@H]3[C@H](C2=O)[C@@H]2C=C[C@H]3CC2)cc1 [Compound 36, 4-cis-endo-(3a,4,7,7a-Tetrahydro-1H-4,7-ethanoisoindole-1,3(2H)-dion-2-yl)-N-(quinolin-8-yl) benzamide] | – | fold less potent in Wnt inhibition [3]: > 10 fold
O=C(Nc1cccc2cccnc12)c1ccc(N2C(=O)[C@@H]3[C@H]4CC[C@H](CC4)[C@@H]3C2=O)cc1 [Compound 37, 4-cis-endo-(Hexahydro-1H-4,7-ethanoisoindole-1,3(2H)-dion-2-yl)-N-(quinolin-8-yl) benzamide] | functionally inactive as inducers of cardiogenesis | IC50 [3, 4]: > 200 nM; fold less potent in Wnt inhibition [3]: > 10 fold
O=C(Nc1cccc2cccnc12)c1ccc(N2C(=O)C3C(C2=O)[C@H]2CC[C@@H]3O2)cc1 (stereo partly shown) [Compound 39, 4-(Hexahydro-1H-4,7-epoxyisoindole-1,3(2H)-dion-2-yl)-N-(quinolin-8-yl)benzamide] | functionally inactive as inducers of cardiogenesis | fold less potent in Wnt inhibition [3]: > 10 fold
COc1cc(Br)ccc1NC(=O)[C@H]1CC[C@H](N2C(=O)[C@@H]3[C@@H]4CC[C@@H](C4)[C@@H]3C2=O)CC1 [Compound 53, 4-(cis-endo-1,3-Dioxooctahydro-2H-4,7-methanoisoindol-2-yl)-N-(4-bromo-2-methoxyphenyl)-trans-cyclohexylcarboxamide] | dose-dependent induction of cardiogenesis functional activity | –
O=C1[C@@H]2[C@@H]3CC[C@@H](C3)[C@@H]2C(=O)N1[C@H]1CC[C@H](C(=O)Nc2cncc(O)c2)CC1 [Compound 54, 4-(cis-endo-1,3-Dioxooctahydro-2H-4,7-methanoisoindol-2-yl)-N-(5-hydroxyl-pyridin-3-yl)-trans-cyclohexylcarboxamide] | dose-dependent induction of cardiogenesis functional activity | –
O=C1[C@@H]2[C@@H]3CC[C@@H](C3)[C@@H]2C(=O)N1[C@H]1CC[C@H](C(=O)Nc2cccnc2Cl)CC1 [Compound 55, 4-(cis-endo-1,3-Dioxooctahydro-2H-4,7-methanoisoindol-2-yl)-N-(2-chloropyridin-3-yl)-trans-cyclohexylcarboxamide] | dose-dependent induction of cardiogenesis functional activity | –
CC(=O)c1ccccc1NC(=O)[C@H]1CC[C@@H](N2C(=O)[C@@H]3[C@@H]4CC[C@@H](C4)[C@@H]3C2=O)CC1 [Compound 56, 4-(cis-endo-1,3-Dioxooctahydro-2H-4,7-methanoisoindol-2-yl)-N-(2-acetylphenyl)-cis-cyclohexyl carboxamide] | dose-dependent induction of cardiogenesis functional activity | –
N-[4-((3aR,4S,7R,7aS)-1,3,3a,4,7,7a-Hexahydro-1,3-dioxo-4,7-methano-2H-isoindol-2-yl)phenyl]-quinoline-8-carboxamide [Compound 52] | functionally inactive as inducers of cardiogenesis | % inhibition (1 μM) ([3]; Wnt inhibition at 1 μM, HEK293T cells): 91 ± 1%; IC50 ([3]; HEK293T cells): 119 ± 9 nM
